Reference: publication PMC10066365, “Nemacol is a small molecule inhibitor of C. elegans vesicular acetylcholine transporter with anthelmintic potential” (Nature Communications, 2023)
Values joined by “and” are separate entries in the source; they are usually repeats but may differ in a detail not shown here. Equal entries are not always repeated.

Tests used:
C. elegans = C. elegans motor phenotype scoring on solid media (Punc/jerky-unc, coiled, paralyzed), wild-type young adults; type: in vivo, Caenorhabditis elegans; conditions: for atypical locomotion (number of animals) / coiled (number of animals) / no phene (number of animals) / paralyzed (number of animals) / any phene: mean % fraction of young adults exhibiting any phenotype (coiled, jerky-Unc or paralyzed): one hour; for atypical locomotion (number of animals) / coiled (number of animals) / no phene (number of animals) / paralyzed (number of animals): young adults, 20 animals per trial, single technical replicate; for any phene: mean % fraction of young adults exhibiting any phenotype (coiled, jerky-Unc or paralyzed): mean of three biological replicates; for EC50: Caenorhabditis elegans, any motor phenotype after 1 h on solid media, ± 95% CI, read-out: C. elegans - motor disruption EC50
[1] = tested on: Dirofilaria immitis microfilariae; test: Dirofilaria immitis microfilariae immobility assay (DiroImager, 72 h); conditions: Dirofilaria immitis microfilariae
Outline: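 About 250 freshly purified microfilariae of the Missouri isolate per well in supplemented RPMI 1640, exposed to compound for 72 h. Motility scored by automated whole-plate optical imaging; medium with 1% DMSO as negative control.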

[2] = tested on: Dirofilaria immitis L3/L4; test: Dirofilaria immitis L3/L4 motility assay (DiroImager, 72 h); conditions: Dirofilaria immitis L4
Pristionchus pacificus = Pristionchus pacificus motor disruption dose-response on solid media, 1 h; conditions: for EC50: Pristionchus pacificus, 1 h, read-out: P. pacificus motor disruption EC50; for mean % any phene: any phenotype (coiled, jerky-Unc or paralyzed) at one hour; for mean % any phene / mean % any phene (coiled, jerky-Unc or paralyzed): mean of three biological replicates; for rep 1 atypical locomotion / rep 1 coiled / rep 1 no phene / rep 1 paralyzed / rep 2 atypical locomotion / rep 2 coiled / rep 2 no phene / rep 2 paralyzed / rep 3 atypical locomotion / rep 3 coiled / rep 3 no phene / rep 3 paralyzed: count of 20 animals per trial, one hour; for mean % any phene (coiled, jerky-Unc or paralyzed): Pristionchus pacificus young adults

In the case of `FC(F)(F)c1cccc(N2CCN(CC3CCCCC3)CC2)c1` [Nemacol-49], the “atypical locomotion (number of animals)” value (C. elegans; 3.75uM) is reported as 3 and 2 and 1, the “coiled (number of animals)” value (C. elegans; 3.75uM) is reported as 0 and the “no phene (number of animals)” value (C. elegans; 3.75uM) is reported as 17 and 18 and 19. For the same molecule, the “paralyzed (number of animals)” value (C. elegans; 3.75uM) was 0, the “any phene: mean % fraction of young adults exhibiting any phenotype (coiled, jerky-Unc or paralyzed)” value (from here on “any phene: mean % fraction”) (C. elegans; 3.75uM) was 9.167% and the “atypical locomotion (number of animals)” value (C. elegans; 15uM) was 12 and 13 and 9. For the same molecule, the “coiled (number of animals)” value (C. elegans; 15uM) was 3 and 1 and 2 and 0, the “no phene (number of animals)” value (C. elegans; 15uM) was 5 and 7 and 10 and 8 and the “paralyzed (number of animals)” value (C. elegans; 15uM) was 0. The “any phene: mean % fraction” value (C. elegans; 15uM) was 65%, the “atypical locomotion (number of animals)” value (C. elegans; 60uM) was 13 and 16 and 10 and 14 and 15 and the “coiled (number of animals)” value (C. elegans; 60uM) was 7 and 4 and 10 and 6 and 1 and 3. The “no phene (number of animals)” value (C. elegans; 60uM) was 0 and 5 and 2, the “paralyzed (number of animals)” value (C. elegans; 60uM) was 0 and the “any phene: mean % fraction” value (C. elegans; 60uM) was 94.1667%. The EC50 (C. elegans) was 11.2 ± 1.6 µM, the “% effect (motility), DIROIM MF” value ([1]; 0.016 µM) was 0% and the “% effect (motility), DIROIM MF” value ([1]; 0.08 µM) was 0%. The “% effect (motility), DIROIM MF” value ([1]; 0.4 µM) was 0%, the “% effect (motility), DIROIM MF” value ([1]; 2 µM) was 0% and the “% effect (motility), DIROIM MF” value ([1]; 10 µM) was 0%. For the same molecule, the “% effect (motility), DIROIM L4” value ([2]; 10 µM) was 0%, the “% effect (motility), DIROIM L4” value ([2]; 50 µM) was 10% and the EC50 (Pristionchus pacificus) was > 60 µM. The “mean % any phene” value (Pristionchus pacificus; conc 3.75) was 0%, the “rep 1 atypical locomotion” value (Pristionchus pacificus; conc 3.75) was 0 and the “rep 1 coiled” value (Pristionchus pacificus; conc 3.75) was 0. For the same molecule, the “rep 1 no phene” value (Pristionchus pacificus; conc 3.75) was 20, the “rep 1 paralyzed” value (Pristionchus pacificus; conc 3.75) was 0 and the “rep 2 atypical locomotion” value (Pristionchus pacificus; conc 3.75) was 0. For the same molecule, the “rep 2 coiled” value (Pristionchus pacificus; conc 3.75) was 0, the “rep 2 no phene” value (Pristionchus pacificus; conc 3.75) was 20 and the “rep 2 paralyzed” value (Pristionchus pacificus; conc 3.75) was 0. For the same molecule, the “rep 3 atypical locomotion” value (Pristionchus pacificus; conc 3.75) was 0, the “rep 3 coiled” value (Pristionchus pacificus; conc 3.75) was 0 and the “rep 3 no phene” value (Pristionchus pacificus; conc 3.75) was 20. The “rep 3 paralyzed” value (Pristionchus pacificus; conc 3.75) was 0, the “mean % any phene” value (Pristionchus pacificus; conc 15) was 0% and the “rep 1 atypical locomotion” value (Pristionchus pacificus; conc 15) was 0. The “rep 1 coiled” value (Pristionchus pacificus; conc 15) was 0, the “rep 1 no phene” value (Pristionchus pacificus; conc 15) was 20 and the “rep 1 paralyzed” value (Pristionchus pacificus; conc 15) was 0. For the same molecule, the “rep 2 atypical locomotion” value (Pristionchus pacificus; conc 15) was 0, the “rep 2 coiled” value (Pristionchus pacificus; conc 15) was 0 and the “rep 2 no phene” value (Pristionchus pacificus; conc 15) was 20. The “rep 2 paralyzed” value (Pristionchus pacificus; conc 15) was 0, the “rep 3 atypical locomotion” value (Pristionchus pacificus; conc 15) was 0 and the “rep 3 coiled” value (Pristionchus pacificus; conc 15) was 0. For the same molecule, the “rep 3 no phene” value (Pristionchus pacificus; conc 15) was 20, the “rep 3 paralyzed” value (Pristionchus pacificus; conc 15) was 0 and the “mean % any phene” value (Pristionchus pacificus; conc 60) was 12.5%. The “rep 1 atypical locomotion” value (Pristionchus pacificus; conc 60) was 2, the “rep 1 coiled” value (Pristionchus pacificus; conc 60) was 0 and the “rep 1 no phene” value (Pristionchus pacificus; conc 60) was 18. The “rep 1 paralyzed” value (Pristionchus pacificus; conc 60) was 0, the “rep 2 coiled” value (Pristionchus pacificus; conc 60) was 0 and the “rep 2 no phene” value (Pristionchus pacificus; conc 60) was 17 and 19. The “rep 2 paralyzed” value (Pristionchus pacificus; conc 60) was 0, the “rep 3 atypical locomotion” value (Pristionchus pacificus; conc 60) was 4 and 3 and the “rep 3 coiled” value (Pristionchus pacificus; conc 60) was 0. The “rep 3 no phene” value (Pristionchus pacificus; conc 60) was 16 and 17 and the “rep 3 paralyzed” value (Pristionchus pacificus; conc 60) was 0.

For `Fc1ccc(N2CCN(C3CCCCCC3)CC2)cc1` [Nemacol-51], the “atypical locomotion (number of animals)” value (C. elegans; 3.75uM) was 7 and 4 and 2 and 14 and 17, the “coiled (number of animals)” value (C. elegans; 3.75uM) was 0 and 4 and 2 and the “no phene (number of animals)” value (C. elegans; 3.75uM) was 13 and 16 and 18 and 2 and 1. For the same molecule, the “paralyzed (number of animals)” value (C. elegans; 3.75uM) was 0, the “atypical locomotion (number of animals)” value (C. elegans; 15uM) was 13 and 14 and 15 and 6 and 7 and the “coiled (number of animals)” value (C. elegans; 15uM) was 1 and 3 and 5 and 2 and 8. The “no phene (number of animals)” value (C. elegans; 15uM) was 6 and 2 and 3 and 0, the “paralyzed (number of animals)” value (C. elegans; 15uM) was 0 and 1 and 6 and 8 and the “any phene: mean % fraction” value (C. elegans; 15uM) was 89.1667%. The “atypical locomotion (number of animals)” value (C. elegans; 60uM) was 3 and 1 and 4 and 0, the “coiled (number of animals)” value (C. elegans; 60uM) was 14 and 17 and 11 and 15 and the “no phene (number of animals)” value (C. elegans; 60uM) was 0. For the same molecule, the “paralyzed (number of animals)” value (C. elegans; 60uM) was 3 and 2 and 5, the EC50 (C. elegans) was 4.2 ± 2.3 µM and the “% effect (motility), DIROIM MF” value ([1]; 0.016 µM) was 0%. For the same molecule, the “% effect (motility), DIROIM MF” value ([1]; 0.08 µM) was 0%, the “% effect (motility), DIROIM MF” value ([1]; 0.4 µM) was 0% and the “% effect (motility), DIROIM MF” value ([1]; 2 µM) was 0%. For the same molecule, the “% effect (motility), DIROIM MF” value ([1]; 10 µM) was 0%, the “% effect (motility), DIROIM L4” value ([2]; 10 µM) was 0% and the “% effect (motility), DIROIM L4” value ([2]; 50 µM) was 10%. The “mean % any phene (coiled, jerky-Unc or paralyzed)” value (Pristionchus pacificus; conc 3.75, observed at one hour) was 2.5%, the “mean % any phene (coiled, jerky-Unc or paralyzed)” value (Pristionchus pacificus; conc 15, observed at one hour) was 60% and the “mean % any phene (coiled, jerky-Unc or paralyzed)” value (Pristionchus pacificus; conc 60, observed at one hour) was 85%. For the same molecule, the EC50 (Pristionchus pacificus) was 13.2 ± 3 µM.
